Values of other authors as cited in patent US20140045806A1 (priority 2012, published 2014).

Tested on: vaginal nerve fibers
Details: Pessina, Hoyt et al. 2006; cited from earlier work

SMILES | Number and size of the nerve terminals in the lamina propria
CC(=O)[C@H]1CC[C@H]2[C@@H]3CCC4=CC(=O)CC[C@]4(C)[C@H]3CC[C@]12C [progesterone] | no effect
C[C@]12CC[C@H]3[C@@H](CCC4=CC(=O)CC[C@@]43C)[C@@H]1CC[C@@H]2O [testosterone] | increases the number and size of the nerve terminals
